Reference: US11970493B2, “Autotaxin inhibitor compounds” (ILDONG PHARMACEUTICAL CO., LTD., priority 2020, dated 2024)
Counter-ions that a name gives are not always drawn.

Molecular target: hATX/ENPP2 (Homo sapiens, UniProt Q13822)
Assay: hATX/ENPP2 biochemical assay using 16:0-LPC as substrate (Amplex Red/choline oxidase/HRP fluorescence)
Details: hENPP2 2.5 nM, LPC (16:0) substrate
Protocol: The enzyme is diluted in 50 mM Tris-HCl pH 8.0, 140 mM NaCl, 5 mM CaCl2, 0.01% Triton X-100 in a total volume of 5 μL. The aqueous solution of enzyme is added to the wells and incubated with different concentrations of the compounds at room temperature for 15 min. The reaction is started by the addition of 5 μL of 80 μM LPC (16:0) and 10 μL of the detection mixture containing 200 μM Amplex Red, 10 U/mL choline oxidase and 4 U/mL HRP. Fluorescence at 590 nm was measured kinetically with excitation at 530 nm. The slope of the curve (from 60 to 70 min of the reaction time) was used to calculate the compounds' IC50 values.

| IC50 | Structure (SMILES) |
| --- | --- |
| ≤ 20 nM | CCc1nc2ccc(-c3cnc(N4CCC(NC(=O)C5CNC5)CC4)nc3)cn2c1N(C)c1nc(-c2ccc(F)cc2)c(C#N)s1 [Compound 83 hydrochloride, N-(1-(5-(3-((5-cyano-4-(4-fluorophenyl)thiazol-2-yl)(methyl)amino)-2-ethylimidazo[1,2-a]pyridin-6-yl)pyrimidin-2-yl)piperidin-4-yl)azetidine-3-carboxamide hydrochloride] |
| 20 to 200 nM | CCc1nc2ccc(-c3cnc(N4CCC(NC(=O)C5(C#N)CC5)CC4)nc3)cn2c1N(C)c1nc(-c2ccc(F)cc2)c(C#N)s1 [Compound 20, 1-cyano-N-(1-(5-(3-((5-cyano-4-(4-fluorophenyl)thiazol-2-yl)(methyl)amino)-2-ethylimidazo[1,2-a]pyridin-6-yl)pyrimidin-2-yl)piperidin-4-yl) cyclopropane-1-carboxamide] |
| 20 to 200 nM | CCc1nc2ccc(-c3cnc(N4CC(NC(=O)[C@@H]5C[C@@H](O)CN5)C4)nc3)cn2c1N(C)c1nc(-c2ccc(F)cc2)c(C#N)s1 [Compound 26, (2S,4R)—N-(1-(5-(3-((5-cyano-4-(4-fluorophenyl)thiazol-2-yl)(methyl)amino)-2-ethylimidazo[1,2-a]pyridin-6-yl)pyrimidin-2-yl)azetidin-3-yl)-4-hydroxypyrrolidine-2-carboxamide] |
| ≤ 20 nM | CCc1nc2ccc(-c3ccc(N4CCC(NC(=O)C5(O)CC5)CC4)nc3)cn2c1N(C)c1nc(-c2ccc(F)cc2)c(C#N)s1 [Compound 98, N-(1-(5-(3-((5-cyano-4-(4-fluorophenyl)thiazol-2-yl)(methyl)amino)-2-ethylimidazo[1,2-a]pyridin-6-yl)pyridin-2-yl)piperidin-4-yl)-1-hydroxycyclopropane-1-carboxamide] |
| 20 to 200 nM | CCc1nc2ccc(-c3ccc(N4CCN(C(=O)C5CCCC5)CC4)nc3)cn2c1N(C)c1nc(-c2ccc(F)cc2)c(C#N)s1 [Compound 112, 2-((6-(6-(4-(cyclopentanecarbonyl)piperazin-1-yl)pyridin-3-yl)-2-ethylimidazo[1,2-a]pyridin-3-yl)(methyl)amino)-4-(4-fluorophenyl)thiazole-5-carbonitrile] |
| ≤ 20 nM | CCc1nc2ccc(-c3cnc(N4CCN(C(=O)[C@@H]5C[C@@H](O)CN5)CC4)nc3)cn2c1N(C)c1nc(-c2ccc(F)cc2)c(C#N)s1 [Compound 5, 2-((2-ethyl-6-(2-(4-((2S,4R)-4-hydroxypyrrolidine-2-carbonyl)piperazin-1-yl)pyrimidin-5-yl)imidazo[1,2-a]pyridin-3-yl)(methyl)amino)-4-(4-fluorophenyl)thiazole-5-carbonitrile] |
| ≤ 20 nM | CCc1nc2ccc(-c3cnc(N4CCC(C(=O)NC5CNC5)CC4)nc3)cn2c1N(C)c1nc(-c2ccc(F)cc2)c(C#N)s1 [Compound 72 hydrochloride, N-(azetidin-3-yl)-1-(5-(3-((5-cyano-4-(4-fluorophenyl)thiazol-2-yl)(methyl)amino)-2-ethylimidazo[1,2-a]pyridin-6-yl)pyrimidin-2-yl)piperidine-4-carboxamide hydrochloride] |
| 20 to 200 nM | CCc1nc2ccc(-c3cnc(CC(=O)NC)nc3)cn2c1N(C)c1nc(-c2ccc(F)cc2)c(C#N)s1 [Compound 61, 2-(5-(3-((5-cyano-4-(4-fluorophenyl)thiazol-2-yl)(methyl)amino)-2-ethylimidazo[1,2-a]pyridin-6-yl)pyrimidin-2-yl)-N-methyl acetamide] |
| 20 to 200 nM | CCc1nc2ccc(-c3ccc(N4CCN(C(=O)C5CN(C)C5)CC4)nc3)cn2c1N(C)c1nc(-c2ccc(F)cc2)c(C#N)s1 [Compound 86, 2-((2-ethyl-6-(6-(4-(1-methylazetidine-3-carbonyl)piperazin-1-yl)pyridin-3-yl)imidazo[1,2-a]pyridin-3-yl)(methyl)amino)-4-(4-fluorophenyl)thiazole-5-carbonitrile] |
| 20 to 200 nM | CCc1nc2ccc(-c3cnc(N4CC(NC(=O)C5(O)CC5)C4)nc3)cn2c1N(C)c1nc(-c2ccc(F)cc2)c(C#N)s1 [Compound 31, N-(1-(5-(3-((5-cyano-4-(4-fluorophenyl)thiazol-2-yl)(methyl)amino)-2-ethylimidazo[1,2-a]pyridin-6-yl)pyrimidin-2-yl)azetidin-3-yl)-1-hydroxycyclopropane-1-carboxamide] |
| ≤ 20 nM | CCc1nc2ccc(-c3cnc(N4CC(C(=O)NC5(C#N)CC5)C4)nc3)cn2c1N(C)c1nc(-c2ccc(F)cc2)c(C#N)s1 [Compound 32, 1-(5-(3-((5-cyano-4-(4-fluorophenyl)thiazol-2-yl)(methyl)amino)-2-ethylimidazo[1,2-a]pyridin-6-yl)pyrimidin-2-yl)-N-(1-cyanocyclopropyl)azetidine-3-carboxamide] |
| ≤ 20 nM | CCc1nc2ccc(-c3cnc(N4CCC(NC5CCNCC5)CC4)nc3)cn2c1N(C)c1nc(-c2ccc(F)cc2)c(C#N)s1 [Compound 69 formate, 2-((2-ethyl-6-(2-(4-(piperidin-4-ylamino)piperidin-1-yl)pyrimidin-5-yl)imidazo[1,2-a]pyridin-3-yl)(methyl)amino)-4-(4-fluorophenyl) thiazole-5-carbonitrile formate] |
| > 200 nM | CCc1nc2ccc(-c3cnc(NCC4CNC4)nc3)cn2c1N(C)c1nc(-c2ccc(F)cc2)c(C#N)s1 [38 (formate salt), 2-((6-(2-((azetidin-3-ylmethyl)amino)pyrimidin-5-yl)-2-ethylimidazo[1,2-a]pyridin-3-yl)(methyl)amino)-4-(4-fluorophenyl)thiazole-5-carbonitrile formate] |
| 20 to 200 nM | CCc1nc2ccc(-c3cnc(CC(=O)N4CC(O)C4)nc3)cn2c1N(C)c1nc(-c2ccc(F)cc2)c(C#N)s1 [Compound 52, 2-((2-ethyl-6-(2-(2-(3-hydroxyazetidin-1-yl)-2-oxoethyl)pyrimidin-5-yl)imidazo[1,2-a]pyridin-3-yl)(methyl)amino)-4-(4-fluorophenyl)thiazole-5-carbonitrile] |
| ≤ 20 nM | CCc1nc2ccc(-c3ccc(N4CCN(CC(=O)N5CC[C@H](O)C5)CC4)nc3)cn2c1N(C)c1nc(-c2ccc(F)cc2)c(C#N)s1 [Compound 91, (S)-2-((2-ethyl-6-(6-(4-(2-(3-hydroxypyrrolidin-1-yl)-2-oxoethyl)piperazin-1-yl)pyridin-3-yl)imidazo[1,2-a]pyridin-3-yl)(methyl)amino)-4-(4-fluorophenyl) thiazole-5-carbonitrile] |
| ≤ 20 nM | CCc1nc2ccc(-c3cnc(N4CCC(NC(=O)C5(O)CC5)CC4)nc3)cn2c1N(C)c1nc(-c2ccc(F)cc2)c(C#N)s1 [Compound 19, N-(1-(5-(3-((5-cyano-4-(4-fluorophenyl)thiazol-2-yl)(methyl)amino)-2-ethylimidazo[1,2-a]pyridin-6-yl)pyrimidin-2-yl)piperidin-4-yl)-1-hydroxycyclopropane-1-carboxamide] |
| ≤ 20 nM | CCc1nc2ccc(-c3cnc(N4CCC(NC5(CO)CC5)CC4)nc3)cn2c1N(C)c1nc(-c2ccc(F)cc2)c(C#N)s1 [Compound 18, 2-((2-ethyl-6-(2-(4-((1-(hydroxymethyl)cyclopropyl)amino)piperidin-1-yl)pyrimidin-5-yl)imidazo[1,2-a]pyridin-3-yl) (methyl)amino)-4-(4-fluorophenyl)thiazole-5-carbonitrile] |
| ≤ 20 nM | CCc1nc2ccc(-c3cnc(N4CCN(C(=O)[C@@H]5C[C@@H](O)CN5C)CC4)nc3)cn2c1N(C)c1nc(-c2ccc(F)cc2)c(C#N)s1 [Compound 78, 2-((2-ethyl-6-(2-(4-((2S,4R)-4-hydroxy-1-methylpyrrolidine-2-carbonyl)piperazin-1-yl)pyrimidin-5-yl)imidazo [1,2-a]pyridin-3-yl)(methyl)amino)-4-(4-fluorophenyl)thiazole-5-carbonitrile] |
| 20 to 200 nM | CCc1nc2ccc(-c3cnc(N4CCN(C(=O)NC5CCNCC5)CC4)nc3)cn2c1N(C)c1nc(-c2ccc(F)cc2)c(C#N)s1 [Compound 67, 4-(5-(3-((5-cyano-4-(4-fluorophenyl)thiazol-2-yl)(methyl)amino)-2-ethylimidazo[1,2-a]pyridin-6-yl)pyrimidin-2-yl)-N-(piperidin-4-yl)piperazine-1-carboxamide] |
| 20 to 200 nM | CCc1nc2ccc(-c3ccc(N4CCN(C(=O)NC5CCNCC5)CC4)nc3)cn2c1N(C)c1nc(-c2ccc(F)cc2)c(C#N)s1 [Compound 94, 4-(5-(3-((5-cyano-4-(4-fluorophenyl)thiazol-2-yl)(methyl)amino)-2-ethylimidazo[1,2-a]pyridin-6-yl)pyridin-2-yl)-N-(piperidin-4-yl)piperazine-1-carboxamide] |
| ≤ 20 nM | CCc1nc2ccc(-c3cnc(N4CCN(C(=O)NC5CN(C)C5)CC4)nc3)cn2c1N(C)c1nc(-c2ccc(F)cc2)c(C#N)s1 [Compound 82 hydrochloride, 4-(5-(3-((5-cyano-4-(4-fluorophenyl)thiazol-2-yl)(methyl)amino)-2-ethylimidazo[1,2-a]pyridin-6-yl)pyrimidin-2-yl)-N-(1-methylazetidin-3-yl)piperazine-1-carboxamide hydrochloride] |
| > 200 nM | CCc1nc2ccc(-c3cnc(NC4CNC4)nc3)cn2c1N(C)c1nc(-c2ccc(F)cc2)c(C#N)s1 [Compound 34, 2-((6-(2-(azetidin-3-ylamino)pyrimidin-5-yl)-2-ethylimidazo[1,2-a]pyridin-3-yl)(methyl)amino)-4-(4-fluorophenyl)thiazole-5-carbonitrile] |
| 20 to 200 nM | CCc1nc2ccc(-c3cnc(C(=O)N4CC[C@H](O)C4)nc3)cn2c1N(C)c1nc(-c2ccc(F)cc2)c(C#N)s1 [Compound 48, (S)-2-((2-ethyl-6-(2-(3-hydroxypyrrolidine-1-carbonyl)pyrimidin-5-yl)imidazo[1,2-a]pyridin-3-yl)(methyl)amino)-4-(4-fluorophenyl) thiazole-5-carbonitrile] |
